One molecule from the NIST ThermoML archive (doi:10.1016/j.tca.2017.02.001) can be followed below.

The conditions of the series: 298.15 K, 101.33 kPa, Liquid.

Numbers after ± are expanded uncertainties.

The term viscosity denotes the resistance of a fluid to flow. Regarding `OCCO` [1,2-ethanediol], the viscosity (Cone and plate viscometry) is reported as 16.9 ± 1.7 mPa·s. Further, the electrical conductivity (Direct current cell with electrodes) came to 8.5e-05 ± 2e-06 S/m. The thermal conductivity (transient hot wire) came out at 0.2445 ± 0.0098 W/m/K.
